Experimental data from paper PMC6875038, “Comparative Pharmacokinetic Studies of Four Ginsenosides in Rat Plasma by UPLC-MS/MS after Oral Administration of Panax quinquefolius-Acorus gramineus and Panax quinquefolius Extracts” (Journal of Analytical Methods in Chemistry, 2019).
Read-outs that look alike come from different tables or passages of the source.

What was measured:
[1] = Pharmacokinetics of four ginsenosides in rat plasma after oral administration of PQ-AG and PQ extracts (UPLC-MS/MS); assay type: in vivo; conditions: male SD rats, n = 6, mean ± SD; for AUC: male, SD, po
Experimental: Chromatographic analysis was performed on a Waters Acquity UPLC system (Waters Corp., Milford, MA, USA). An ACQUITY UPLC BEH C18 (100 × 2.1 mm, 1.7 μm) column was used for all analytes. The column temperature was at 35°C. The mobile phase was composed of formic acid aqueous solution (A, 0.1%) and acetonitrile (B) at a gradient elution of 25% B at 0–0.5 min, 25%–50% B at 0.5–2.0 min, 50–60% B at 2.0–5.0 min, 60–25% B at 5.0–5.5 min, and 25% B at 5.5–7.0 min, with a flow rate of 0.2 mL/min.
MS detection was performed using the Xevo Triple Quadruple MS (Waters Corp.) equipped with an ESI source in both positive and negative ionization modes. The experimental parameters were set as follows: CV 2.80 kV; desolvation temperature 350°C; source temperature […]; cone gas flow 50 L/h; and desolvation gas flow 650 L/h. The detection was carried out using the MRM scan mode. All experimental data were collected in centroid mode using Masslynx 4.1 software (Waters Corp., Milford, USA), and postacquisition quantitative analysis was conducted using Target Lynx program (Waters Corp., Milford, USA).
Plasma specimens (200 μL) were mixed with IS solution (20 μL, 720 ng/mL) in an Eppendorf tube and centrifuged at 4, 000 rpm for 15 min at 4°C. Then, the supernatant was removed from plasma sample. Hydrochloric acid (4 μL) was added into 200 μL plasma sample, and then, the mixture was vortexed for 1 min. Waters OASIS HLB SPE C18 columns (Waters, USA) were used to remove the proteins in plasma samples, and it was preactivated by 3 mL methanol and 3 mL water. Then, 2 mL of 100% methanol was used to wash the column, and the eluate was collected and dried under nitrogen gas (45°C). Subsequently, 100 μL of 100% methanol was used to redissolve the residues, followed by centrifugation at 13, 000 rpm for 15 min at 4°C. Before UPLC-MS/MS analysis, the sample was finally filtered through a 0.22 μm membrane filter.
DAS 3.2 software (Mathematical Pharmacology Professional Committee of China, Shanghai, China, 2011) was applied for the analysis of concentration-time data to investigate the pharmacokinetic parameters of four ginsenosides in various groups. Data were presented as the mean ± SD (standard deviation) with triplicate measurements. A significance level was set at P < 0.05.
Male SD rats were randomly and evenly divided into two groups (n = 6 per group) in pharmacokinetic studies. To evaluate the compatible effect of AG upon PQ treatment, rats were given PQ at a dosage of 0.54 g/kg (equivalent to the amount of raw drug 0.54 g) in the PQ group. PQ-AG was combined with an equal proportion to prepare the mixed extract. The oral dosage in rats was 1.08 g/kg (equivalent to the amount of the raw drug including 0.54 g AG and 0.54 g PQ) in the PQ-AG group. Blood samples were collected at specific time points of 0, 0.25, 0.5, 1.0, 1.5, 2.0, 4.0, 6.0, 8.0, 12.0, 16.0, 24.0, and 48.0 h. All the plasma samples were obtained by centrifuging the blood samples at 3, 500 rpm for 10 min, then labeled and frozen at −80°C prior to analysis.

[2] = Stability of the ginsenosides in rat plasma (QC samples); assay type: in vitro ADME; conditions: for Re (%) Postpreparation / Recovery (%) Postpreparation: autosampler 4°C for 12 h; for Re (%) Short term / Recovery (%) Short term / Re (%) Freeze-thaw cycles / Recovery (%) Freeze-thaw cycles: rat plasma; for Re (%) Short term / Recovery (%) Short term: 1 month at −80°C; for Re (%) Freeze-thaw cycles / Recovery (%) Freeze-thaw cycles: three freeze-thaw cycles at −80°C
Experimental: The standard stock solution was prepared in methanol with four ginsenosides at the final concentration of 1.14 mg/mL for Rb1, 0.10 mg/mL for Rb2, 0.78 mg/mL for Rd, and 1.58 mg/mL for Re. The working standard solution at required concentration was obtained by continuously diluting the stock solution. The IS stock solution was also prepared with methanol at a final concentration of 720 ng/mL. Calibration samples were prepared by mixing solutions of standard mixture, internal standard, and methanol with rat blank plasma at the final concentrations of 3.6, 7.2, 35.6, 71.2, 142.4, 284.8, 569.5, and 1, 139.0 ng/mL for Rb1, 1.6, 3.2, 6.3, 31.3, 62.5, 125.0, 250.0, and 500.0 ng/mL for Rb2, 1.2, 2.4, 4.9, 24.4, 48.8, 97.6, 195.1, and 390.2 ng/mL for Rd, and 2.5, 4.9, 9.9, 49.3, 98.6, 197.1, 394.3, and 788.5 ng/mL for Re. QC samples were also prepared with the same method at low, middle, and high concentrations (7.2, 142.4, and 911.4 ng/mL for Rb1, 3.2, 62.5, and 400.0 ng/mL for Rb2, 2.4, 48.8, and 312.2 ng/mL for Rd, 5.0, 98.6, and 630.8 ng/mL for Re). All solutions were stored at 4°C. The stability of the four analytes was determined by exposing plasma samples to QC at three concentration levels in six replicates. Samples were stored at −80°C for 1 month to assess the short-term storage stability. Freeze-thaw stability was performed after three freeze-thaw cycles at −80°C during three consecutive days. To evaluate the postpreparative stability, extracted QC samples were kept in the autosampler (4°C) for 12 h before analysis. The stability assessment of these samples was calibrated with freshly prepared standard as previously described.

[3] = PQ group: oral PQ extract 0.54 g/kg
[4] = PQ-AG group: oral PQ-AG extract 1.08 g/kg
[5] = 0.54 g/kg, PQ group: oral PQ extract 0.54 g/kg, read-out: AUC0⟶t
[6] = 0.54 g/kg, PQ group: oral PQ extract 0.54 g/kg, read-out: AUC0⟶∞
[7] = 1.08 g/kg, PQ-AG group: oral PQ-AG extract 1.08 g/kg, read-out: AUC0⟶t
[8] = 1.08 g/kg, PQ-AG group: oral PQ-AG extract 1.08 g/kg, read-out: AUC0⟶∞
[9] = extracted high QC (911.4 Rb1, 400.0 Rb2, 312.2 Rd, 630.8 Re ng/mL)
[10] = extracted low QC (7.2 Rb1, 3.2 Rb2, 2.4 Rd, 5.0 Re ng/mL)
[11] = extracted middle QC (142.4 Rb1, 62.5 Rb2, 48.8 Rd, 98.6 Re ng/mL)
[12] = high QC (911.4 Rb1, 400.0 Rb2, 312.2 Rd, 630.8 Re ng/mL)
[13] = low QC (7.2 Rb1, 3.2 Rb2, 2.4 Rd, 5.0 Re ng/mL)
[14] = middle QC (142.4 Rb1, 62.5 Rb2, 48.8 Rd, 98.6 Re ng/mL)

Structure (SMILES) | Cmax [1, 3] | Tmax [1, 3] | half-life [1, 3] | Cmax [1, 4] | Tmax [1, 4] | half-life [1, 4] | AUC [1, 5] | AUC [1, 6] | AUC [1, 7] | AUC [1, 8] | Re (%) Postpreparation [2, 9] | Recovery (%) Postpreparation [2, 9] | Re (%) Postpreparation [2, 10] | Recovery (%) Postpreparation [2, 10] | Re (%) Postpreparation [2, 11] | Recovery (%) Postpreparation [2, 11] | Re (%) Short term [2, 12] | Recovery (%) Short term [2, 12] | Re (%) Freeze-thaw cycles [2, 12] | Recovery (%) Freeze-thaw cycles [2, 12] | other results
CC(C)=CCC[C@](C)(O[C@@H]1O[C@H](CO[C@@H]2O[C@H](CO)[C@@H](O)[C@H](O)[C@H]2O)[C@@H](O)[C@H](O)[C@H]1O)[C@H]1CC[C@]2(C)[C@@H]1[C@H](O)C[C@@H]1[C@@]3(C)CC[C@H](O[C@@H]4O[C@H](CO)[C@@H](O)[C@H](O)[C@H]4O[C@@H]4O[C@H](CO)[C@@H](O)[C@H](O)[C@H]4O)C(C)(C)[C@@H]3CC[C@]12C [Rb1] | 461 ± 15.9 ng/mL | 7 ± 1.1 h | 15.6 ± 1.52 h | 600 ± 53.6 ng/mL | 6.67 ± 1.03 h | 18.5 ± 2.61 h | 5980 ± 313 ng·h/mL | 6150 ± 328 ng·h/mL | 8130 ± 454 ng·h/mL | 8410 ± 488 ng·h/mL | −6.47% | 96.10% | 6.86% | 101.85% | 9.35% | 101.65% | 7.53% | 101.65% | 7.75% | 101.95% | Re (%) Short term [2, 13]: −7.55%; Recovery (%) Short term [2, 13]: 96.32%; Re (%) Freeze-thaw cycles [2, 13]: −6.90%; Recovery (%) Freeze-thaw cycles [2, 13]: 97.66%; Re (%) Short term [2, 14]: 7.95%; Recovery (%) Short term [2, 14]: 100.48%; Re (%) Freeze-thaw cycles [2, 14]: −4.48%; Recovery (%) Freeze-thaw cycles [2, 14]: 95.35%
CC(C)=CCC[C@](C)(O[C@@H]1O[C@H](CO[C@@H]2OC[C@H](O)[C@H](O)[C@H]2O)[C@@H](O)[C@H](O)[C@H]1O)[C@H]1CC[C@]2(C)[C@@H]1[C@H](O)C[C@@H]1[C@@]3(C)CC[C@H](O[C@@H]4O[C@H](CO)[C@@H](O)[C@H](O)[C@H]4O[C@@H]4O[C@H](CO)[C@@H](O)[C@H](O)[C@H]4O)C(C)(C)[C@@H]3CC[C@]12C [Rb2] | 160 ± 18.8 ng/mL | 7.67 ± 0.82 h | 13.3 ± 1.58 h | 264 ± 24.5 ng/mL | 7.67 ± 0.82 h | 15.6 ± 5.21 h | 1210 ± 99.2 ng·h/mL | 1230 ± 99.6 ng·h/mL | 2460 ± 243 ng·h/mL | 2520 ± 289 ng·h/mL | 7.90% | 99.63% | −9.72% | 93.37% | 2.39% | 99.94% | 7.11% | 98.74% | 9.36% | 103.82% | Re (%) Short term [2, 13]: −9.70%; Recovery (%) Short term [2, 13]: 93.67%; Re (%) Freeze-thaw cycles [2, 13]: −9.69%; Recovery (%) Freeze-thaw cycles [2, 13]: 94.21%; Re (%) Short term [2, 14]: −2.12%; Recovery (%) Short term [2, 14]: 95.33%; Re (%) Freeze-thaw cycles [2, 14]: 6.77%; Recovery (%) Freeze-thaw cycles [2, 14]: 100.41%
CC(C)=CCC[C@](C)(O[C@@H]1O[C@H](CO)[C@@H](O)[C@H](O)[C@H]1O)[C@H]1CC[C@]2(C)[C@@H]1[C@H](O)C[C@@H]1[C@@]3(C)CC[C@H](O[C@@H]4O[C@H](CO)[C@@H](O)[C@H](O)[C@H]4O[C@@H]4O[C@H](CO)[C@@H](O)[C@H](O)[C@H]4O)C(C)(C)[C@@H]3CC[C@]12C [Rd] | 201 ± 7.3 ng/mL | 7.67 ± 0.82 h | 13.1 ± 2.61 h | 283 ± 11.1 ng/mL | 6.33 ± 0.82 h | 14.2 ± 1.98 h | 3010 ± 230 ng·h/mL | 3320 ± 317 ng·h/mL | 3870 ± 356 ng·h/mL | 3960 ± 383 ng·h/mL | −7.02% | 94.81% | 4.43% | 100.10% | 9.98% | 101.71% | 7.35% | 101.27% | 8.12% | 102.00% | Re (%) Short term [2, 13]: 8.64%; Recovery (%) Short term [2, 13]: 102.66%; Re (%) Freeze-thaw cycles [2, 13]: −11.93%; Recovery (%) Freeze-thaw cycles [2, 13]: 97.24%; Re (%) Short term [2, 14]: 10.24%; Recovery (%) Short term [2, 14]: 103.61%; Re (%) Freeze-thaw cycles [2, 14]: 8.87%; Recovery (%) Freeze-thaw cycles [2, 14]: 100.20%
CC(C)=CCC[C@](C)(O[C@@H]1O[C@H](CO)[C@@H](O)[C@H](O)[C@H]1O)[C@H]1CC[C@]2(C)[C@@H]1[C@H](O)C[C@@H]1[C@@]3(C)CC[C@H](O)C(C)(C)[C@@H]3[C@@H](O[C@@H]3O[C@H](CO)[C@@H](O)[C@H](O)[C@H]3O[C@@H]3O[C@@H](C)[C@H](O)[C@@H](O)[C@H]3O)C[C@]12C [Re] | 355 ± 26.6 ng/mL | 1.08 ± 0.2 h | 8.14 ± 1.2 h | 460 ± 30.2 ng/mL | 0.58 ± 0.2 h | 9.81 ± 2.15 h | 2330 ± 214 ng·h/mL | 2380 ± 224 ng·h/mL | 3430 ± 294 ng·h/mL | 3580 ± 396 ng·h/mL | 9.76% | 102.50% | 8.54% | 104.63% | 8.92% | 97.21% | 8.40% | 101.73% | −9.85% | 97.39% | Re (%) Short term [2, 13]: −10.71%; Recovery (%) Short term [2, 13]: 97.30%; Re (%) Freeze-thaw cycles [2, 13]: 7.33%; Recovery (%) Freeze-thaw cycles [2, 13]: 104.07%; Re (%) Short term [2, 14]: 12.11%; Recovery (%) Short term [2, 14]: 99.25%; Re (%) Freeze-thaw cycles [2, 14]: 7.53%; Recovery (%) Freeze-thaw cycles [2, 14]: 94.12%
